Experimental data from patent publication US20240132484A1, “BROAD SPECTRUM ANTIVIRAL COMPOUNDS TARGETING THE SKI COMPLEX” (priority 2020, published 2024).
Several values for one entry are separate records, joined by “and”; a condition that tells them apart may be missing. Identical values can stand only once. Entries after “also recorded” stand apart in the source; their conditions may differ. Like-named read-outs stand apart in the source and are kept apart here.

How the values were obtained:
SARS2 = assay type: cell-based, SARS-CoV-2; conditions: for Percentage Inhibition Average 1 μM / Screening data (Relative infection to DMSO controls) Average 1 μM: SARS2, 1 μM; for Screening data (Relative infection to DMSO controls) Average 1 μM / Screening data (Relative infection to DMSO controls) Average 5 μM / Screening data (Relative infection to DMSO controls) Average 10 μM / Screening data (Relative infection to DMSO controls) Average 25 μM / Screening data (Relative infection to DMSO controls) Average 50 μM / Average (relative infection to DMSO over the 5 tested concentrations): 100=DMSO control; for Percentage Inhibition Average 5 μM / Screening data (Relative infection to DMSO controls) Average 5 μM: SARS2, 5 μM; for Percentage Inhibition Average 10 μM / Screening data (Relative infection to DMSO controls) Average 10 μM: SARS2, 10 μM; for Percentage Inhibition Average 25 μM / Screening data (Relative infection to DMSO controls) Average 25 μM: SARS2, 25 μM; for Percentage Inhibition Average 50 μM / Screening data (Relative infection to DMSO controls) Average 50 μM: SARS2, 50 μM; for Average (relative infection to DMSO over the 5 tested concentrations): SARS2, average over 1 to 50 uM; for Infection Data, Average, Mean percentage infection relative to DMSO control: Average of Exp 1 (SMW491) and Exp 2 (SMW492); for Infection Data, Percentage Infection Relative to Appropriate DMSO Control: single well, avg background subtraction
cells (nuclei count) = conditions: for Relative cell count to DMSO controls, Average 1 μM / Relative cell count to DMSO controls, Average 5 μM / Relative cell count to DMSO controls, Average 10 μM / Relative cell count to DMSO controls, Average 25 μM / Relative cell count to DMSO controls, Average 50 μM: toxicity data, 100=DMSO control; for Relative cell count to DMSO controls, Average (for correlation analysis): average value over the 5 tested concentrations (1 to 50 uM); for Toxicity Data, Average, Mean percentage relative to DMSO control: Average of Exp 1 (SMW491) and Exp 2 (SMW492); for Toxicity Data, Percentage Relative to Appropriate DMSO Control: single well

SMILES: Cc1ccc(CN(CCN(C)C)Cc2ccccc2)o1 [SILCS11]
- SARS2 antiviral activity (SARS2): improved activity over SILCS1
- Percentage Inhibition Average 1 μM (SARS2): 24.29%
- Screening data (Relative infection to DMSO controls) Average 1 μM (SARS2): 75.71
- Percentage Inhibition Average 5 μM (SARS2): 21.46%
- Screening data (Relative infection to DMSO controls) Average 5 μM (SARS2): 78.54
- Percentage Inhibition Average 10 μM (SARS2): 45.84%
- Screening data (Relative infection to DMSO controls) Average 10 μM (SARS2): 54.16
- Percentage Inhibition Average 25 μM (SARS2): 64.99%
- Screening data (Relative infection to DMSO controls) Average 25 μM (SARS2): 35.01
- Percentage Inhibition Average 50 μM (SARS2): 79.69%
- Screening data (Relative infection to DMSO controls) Average 50 μM (SARS2): 20.31
- Average (relative infection to DMSO over the 5 tested concentrations) (SARS2): 52.75
- Relative cell count to DMSO controls, Average 1 μM (cells (nuclei count)): 111.01
- Relative cell count to DMSO controls, Average 5 μM (cells (nuclei count)): 106.15
- Relative cell count to DMSO controls, Average 10 μM (cells (nuclei count)): 120.55
- Relative cell count to DMSO controls, Average 25 μM (cells (nuclei count)): 105.91
- Relative cell count to DMSO controls, Average 50 μM (cells (nuclei count)): 80.38
- Toxicity Data, Average, Mean (relative to DMSO control) (cells (nuclei count); Average of Exp 1-3, 1 uM): 111.01%
- Toxicity Data, Average, Mean (relative to DMSO control) (cells (nuclei count); Average of Exp 1-3, 5 uM): 106.15%
- Toxicity Data, Average, Mean (relative to DMSO control) (cells (nuclei count); Average of Exp 1-3, 10 uM): 120.55%
- Toxicity Data, Average, Mean (relative to DMSO control) (cells (nuclei count); Average of Exp 1-3, 25 uM): 105.91%
- Toxicity Data, Average, Mean (relative to DMSO control) (cells (nuclei count); Average of Exp 1-3, 50 uM): 80.38%
- Relative cell count to DMSO controls, Average (for correlation analysis) (cells (nuclei count)): 104.80

SMILES: COc1ccc(CNCCc2ccccc2F)c(OCC(O)CN2CCN(C)CC2)c1 (stereo not drawn) [SILCS45]
- SARS2 antiviral activity (SARS2): improved activity over SILCS41; also recorded: improved properties over SILCS46
- Infection Data, Average, Mean percentage infection relative to DMSO control (SARS2; n=4, 1 uM): 54.68%
- Infection Data, Average, Mean percentage infection relative to DMSO control (SARS2; n=4, 5 uM): −1.00%
- Infection Data, Average, Mean percentage infection relative to DMSO control (SARS2; n=4, 10 uM): 3.88%
- Infection Data, Average, Mean percentage infection relative to DMSO control (SARS2; n=4, 25 uM): −1.28%
- Infection Data, Average, Mean percentage infection relative to DMSO control (SARS2; n=4, 50 uM): 3.57%
- Infection Data, Percentage Infection Relative to Appropriate DMSO Control (SARS2; Exp 1 (SMW491), 1 uM): 102.92% and 112.49%
- Infection Data, Percentage Infection Relative to Appropriate DMSO Control (SARS2; Exp 1 (SMW491), 5 uM): −1.31% and −0.48%
- Infection Data, Percentage Infection Relative to Appropriate DMSO Control (SARS2; Exp 1 (SMW491), 10 uM): 0.12% and −3.09%
- Infection Data, Percentage Infection Relative to Appropriate DMSO Control (SARS2; Exp 1 (SMW491), 25 uM): −0.41% and −2.68%
- Infection Data, Percentage Infection Relative to Appropriate DMSO Control (SARS2; Exp 1 (SMW491), 50 uM): 1.17% and −2.53%
- Infection Data, Percentage Infection Relative to Appropriate DMSO Control (SARS2; Exp 2 (SMW492), 1 uM): 3.72% and −0.43%
- Infection Data, Percentage Infection Relative to Appropriate DMSO Control (SARS2; Exp 2 (SMW492), 5 uM): −2.43% and 0.22%
- Infection Data, Percentage Infection Relative to Appropriate DMSO Control (SARS2; Exp 2 (SMW492), 10 uM): 7.69% and 10.80%
- Infection Data, Percentage Infection Relative to Appropriate DMSO Control (SARS2; Exp 2 (SMW492), 25 uM): 0.00% and −2.03%
- Infection Data, Percentage Infection Relative to Appropriate DMSO Control (SARS2; Exp 2 (SMW492), 50 uM): 7.94% and 7.68%
- Percentage Inhibition Average 1 μM (SARS2): 45.32%
- Screening data (Relative infection to DMSO controls) Average 1 μM (SARS2): 54.68
- Percentage Inhibition Average 5 μM (SARS2): 101.00%
- Screening data (Relative infection to DMSO controls) Average 5 μM (SARS2): −1.00
- Percentage Inhibition Average 10 μM (SARS2): 96.12%
- Screening data (Relative infection to DMSO controls) Average 10 μM (SARS2): 3.88
- Percentage Inhibition Average 25 μM (SARS2): 101.28%
- Screening data (Relative infection to DMSO controls) Average 25 μM (SARS2): −1.28
- Percentage Inhibition Average 50 μM (SARS2): 96.43%
- Screening data (Relative infection to DMSO controls) Average 50 μM (SARS2): 3.57
- Average (relative infection to DMSO over the 5 tested concentrations) (SARS2): 11.97
- SARS2 antiviral activity (SARS2; listed as D45): more potent than D46
- Relative cell count to DMSO controls, Average 1 μM (cells (nuclei count)): 116.96
- Relative cell count to DMSO controls, Average 5 μM (cells (nuclei count)): 123.47
- Relative cell count to DMSO controls, Average 10 μM (cells (nuclei count)): 131.34
- Relative cell count to DMSO controls, Average 25 μM (cells (nuclei count)): 119.79
- Relative cell count to DMSO controls, Average 50 μM (cells (nuclei count)): 125.46
- Toxicity Data, Average, Mean percentage relative to DMSO control (cells (nuclei count); n=4, 1 uM): 116.96%
- Toxicity Data, Average, Mean percentage relative to DMSO control (cells (nuclei count); n=4, 5 uM): 123.47%
- Toxicity Data, Average, Mean percentage relative to DMSO control (cells (nuclei count); n=4, 10 uM): 131.34%
- Toxicity Data, Average, Mean percentage relative to DMSO control (cells (nuclei count); n=4, 25 uM): 119.79%
- Toxicity Data, Average, Mean percentage relative to DMSO control (cells (nuclei count); n=4, 50 uM): 125.46%
- Toxicity Data, Percentage Relative to Appropriate DMSO Control (cells (nuclei count); Exp 1 (SMW491), 1 uM): 94% and 101%
- Toxicity Data, Percentage Relative to Appropriate DMSO Control (cells (nuclei count); Exp 1 (SMW491), 5 uM): 121% and 114%
- Toxicity Data, Percentage Relative to Appropriate DMSO Control (cells (nuclei count); Exp 1 (SMW491), 10 uM): 111% and 127%
- Toxicity Data, Percentage Relative to Appropriate DMSO Control (cells (nuclei count); Exp 1 (SMW491), 25 uM): 95% and 123%
- Toxicity Data, Percentage Relative to Appropriate DMSO Control (cells (nuclei count); Exp 1 (SMW491), 50 uM): 129% and 121%
- Toxicity Data, Percentage Relative to Appropriate DMSO Control (cells (nuclei count); Exp 2 (SMW492), 1 uM): 139% and 133%
- Toxicity Data, Percentage Relative to Appropriate DMSO Control (cells (nuclei count); Exp 2 (SMW492), 5 uM): 133% and 126%
- Toxicity Data, Percentage Relative to Appropriate DMSO Control (cells (nuclei count); Exp 2 (SMW492), 10 uM): 137% and 151%
- Toxicity Data, Percentage Relative to Appropriate DMSO Control (cells (nuclei count); Exp 2 (SMW492), 25 uM): 135% and 127%
- Toxicity Data, Percentage Relative to Appropriate DMSO Control (cells (nuclei count); Exp 2 (SMW492), 50 uM): 126%
- Relative cell count to DMSO controls, Average (for correlation analysis) (cells (nuclei count)): 123.40
